In US20210253642A1, “CALPAIN MODULATORS AND THERAPEUTIC USES THEREOF BACKGROUND” (Blade Therapeutics, Inc., priority 2018, published 2021):

Legend:
Format in all cases: biochemical
[1] = target: T1, Human Cathepsin S (Homo sapiens, UniProt P25774); experiment: Cathepsin continuous fluorescence inhibition assay; conditions: Column F; enzyme 6 nM, substrate 1 uM, pH 4.5, 30 minutes pre-incubation with inhibitor
T1 construct: purchased
Description: (§1) Cathepsin activity and inhibition thereof was assessed by means of a continuous fluorescence assay. All assays were run in 384 well format and utilized peptide substrates that liberate fluorescence upon protease catalyzed cleavage. FLIPR plate readers (Molecular Devices Inc.) were used to monitor reactions and extract initial rates which were then fit (four parameter logistic function) to obtain IC50 values. All enzymes are human. All enzymes and reagents were obtained commercially and are summarized in Tables 1 and 2 below along with assay conditions.

[2] = target: T2, Human Cathepsin L (Homo sapiens, UniProt P07711); experiment: Cathepsin continuous fluorescence inhibition assay; conditions: Column G; enzyme 0.025 nM, substrate 1 uM, pH 6.0, 30 minutes pre-incubation with inhibitor
T2 construct: purchased
T2 sequence (P07711 114-333): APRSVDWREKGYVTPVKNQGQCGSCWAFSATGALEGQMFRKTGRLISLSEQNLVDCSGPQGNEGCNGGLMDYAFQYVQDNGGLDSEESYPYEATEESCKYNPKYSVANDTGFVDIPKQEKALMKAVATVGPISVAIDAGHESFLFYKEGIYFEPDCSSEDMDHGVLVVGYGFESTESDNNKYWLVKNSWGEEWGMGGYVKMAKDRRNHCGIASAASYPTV
Description: as §1

[3] = target: T3, Human Cathepsin B (Homo sapiens, UniProt P07858); experiment: Cathepsin continuous fluorescence inhibition assay; conditions: Column D; enzyme 25 nM, substrate 1 uM, pH 5.0, 30 minutes pre-incubation with inhibitor
T3 construct: purchased
Description: as §1

[4] = target: T4, Human Cathepsin K (Homo sapiens, UniProt P43235); experiment: Cathepsin continuous fluorescence inhibition assay; conditions: Column E; enzyme 10 nM, substrate 1 uM, pH 5.5, 30 minutes pre-incubation with inhibitor
T4 construct: purchased
T4 sequence (P43235 115-329): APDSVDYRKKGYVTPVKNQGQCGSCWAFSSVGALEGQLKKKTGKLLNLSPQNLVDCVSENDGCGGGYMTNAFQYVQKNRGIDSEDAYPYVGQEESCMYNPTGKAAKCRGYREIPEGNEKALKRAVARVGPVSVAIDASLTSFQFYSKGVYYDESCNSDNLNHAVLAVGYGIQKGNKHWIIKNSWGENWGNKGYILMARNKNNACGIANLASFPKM
Description: as §1

[5] = target: T5, Human Calpain 2/NS1 (Homo sapiens, UniProt P17655); experiment: Calpain continuous fluorescence (FRET) inhibition assay; conditions: Column B; SensoLyte 520 FRET substrate, pH 7.5, 25C
T5 sequence (P17655 1-700): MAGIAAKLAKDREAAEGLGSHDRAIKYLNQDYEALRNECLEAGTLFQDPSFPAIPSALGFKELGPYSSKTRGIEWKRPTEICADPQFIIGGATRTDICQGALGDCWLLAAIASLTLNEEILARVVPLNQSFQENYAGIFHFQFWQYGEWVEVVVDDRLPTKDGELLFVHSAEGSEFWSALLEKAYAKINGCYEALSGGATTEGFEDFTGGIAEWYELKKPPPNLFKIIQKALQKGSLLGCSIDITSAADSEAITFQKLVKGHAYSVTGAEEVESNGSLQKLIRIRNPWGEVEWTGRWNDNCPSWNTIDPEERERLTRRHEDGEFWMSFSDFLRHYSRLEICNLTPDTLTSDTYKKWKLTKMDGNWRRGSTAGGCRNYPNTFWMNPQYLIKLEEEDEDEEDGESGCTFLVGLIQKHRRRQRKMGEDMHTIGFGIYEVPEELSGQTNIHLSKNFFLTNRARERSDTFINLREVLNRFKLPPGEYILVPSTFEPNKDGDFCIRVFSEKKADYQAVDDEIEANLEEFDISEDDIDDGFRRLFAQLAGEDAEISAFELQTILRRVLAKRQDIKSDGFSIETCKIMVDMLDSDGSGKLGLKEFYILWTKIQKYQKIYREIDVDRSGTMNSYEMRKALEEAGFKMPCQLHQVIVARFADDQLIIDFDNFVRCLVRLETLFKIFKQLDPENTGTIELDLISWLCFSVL
T5 sequence (P04632 1-268 partner): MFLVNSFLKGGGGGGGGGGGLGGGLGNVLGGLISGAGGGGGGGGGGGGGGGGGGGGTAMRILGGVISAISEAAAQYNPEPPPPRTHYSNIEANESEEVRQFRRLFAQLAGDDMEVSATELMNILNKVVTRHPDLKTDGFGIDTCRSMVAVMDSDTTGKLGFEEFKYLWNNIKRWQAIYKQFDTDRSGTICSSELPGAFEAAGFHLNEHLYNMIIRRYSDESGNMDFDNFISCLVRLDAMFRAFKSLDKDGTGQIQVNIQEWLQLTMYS
Description: (§2) Calpain 1, 2, and 9 activity and inhibition thereof was assessed by means of a continuous fluorescence assay. The SensoLyte 520 Calpain substrate (Anaspec Inc.) was optimized for detecting calpain activity. This substrate contains an internally quenched 5-FAM/QXLTM 520 FRET pair. Calpains 1, 2, and 9 cleave the FRET substrate into two separate fragments resulting in an increase of 5-FAM fluorescence that is proportional to calpain activity
(§3) Assays were typically setup in black 384-well plates using automated liquid handling as follows. Calpain assay base buffer typically contains 50 mM Tris, pH 7.5, 100 mM NaCl and 1 mM DTT. Inhibitors were serially diluted in DMSO and used to setup 2× mixtures with calpains in the aforementioned buffer. After incubation at ambient temperature (25C), the reaction was initiated by adding a 2× mix of the fluorescent peptide substrate and CaCl2) (required for in-situ calpain activation) in the same buffer. Reaction progress curve data were typically collected for 10 min using excitation/emission wavelengths of 490 nm/520 nm on SpectraMax i3x or the FLIPR-Tetra plate readers (Molecular Devices Inc.). Reaction rates were calculated from progress curve slopes typically over 1-5 min. Dose response curves (rate vs. log inhibitor concentration) were typically fit to a 4-parameter logistic function to extract IC50 values.

[6] = target: T6, Human Calpain 9/NS1 (Homo sapiens, UniProt O14815); experiment: as above; conditions: Column C; SensoLyte 520 FRET substrate, pH 7.5, 25C
T6 sequence (O14815 1-690): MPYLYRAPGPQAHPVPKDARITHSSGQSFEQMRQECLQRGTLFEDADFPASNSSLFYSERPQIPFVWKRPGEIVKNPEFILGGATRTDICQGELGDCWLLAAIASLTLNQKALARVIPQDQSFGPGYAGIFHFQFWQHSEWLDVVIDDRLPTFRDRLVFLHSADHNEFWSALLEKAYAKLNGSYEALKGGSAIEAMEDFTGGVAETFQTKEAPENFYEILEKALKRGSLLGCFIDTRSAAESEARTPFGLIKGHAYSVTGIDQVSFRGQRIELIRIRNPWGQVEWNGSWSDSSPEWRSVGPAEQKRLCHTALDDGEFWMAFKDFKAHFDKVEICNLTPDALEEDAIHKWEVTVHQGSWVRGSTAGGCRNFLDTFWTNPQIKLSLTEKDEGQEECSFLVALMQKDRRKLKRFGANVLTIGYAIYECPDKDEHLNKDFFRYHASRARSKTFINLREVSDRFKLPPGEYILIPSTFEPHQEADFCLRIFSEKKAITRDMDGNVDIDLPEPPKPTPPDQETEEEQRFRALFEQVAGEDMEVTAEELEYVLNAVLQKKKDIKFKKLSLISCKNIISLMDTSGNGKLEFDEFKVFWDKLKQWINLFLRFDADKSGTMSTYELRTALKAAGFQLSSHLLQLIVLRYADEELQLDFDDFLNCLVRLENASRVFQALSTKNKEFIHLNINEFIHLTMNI
T6 sequence (P04632 1-268 partner): T5 sequence (P04632 1-268 partner)
Description: as §2, §3

[7] = target: T7, Human Calpain 1/NS1 (Homo sapiens, UniProt P07384); experiment: as above; conditions: Column A; SensoLyte 520 FRET substrate, pH 7.5, 25C
T7 sequence (P07384 1-714): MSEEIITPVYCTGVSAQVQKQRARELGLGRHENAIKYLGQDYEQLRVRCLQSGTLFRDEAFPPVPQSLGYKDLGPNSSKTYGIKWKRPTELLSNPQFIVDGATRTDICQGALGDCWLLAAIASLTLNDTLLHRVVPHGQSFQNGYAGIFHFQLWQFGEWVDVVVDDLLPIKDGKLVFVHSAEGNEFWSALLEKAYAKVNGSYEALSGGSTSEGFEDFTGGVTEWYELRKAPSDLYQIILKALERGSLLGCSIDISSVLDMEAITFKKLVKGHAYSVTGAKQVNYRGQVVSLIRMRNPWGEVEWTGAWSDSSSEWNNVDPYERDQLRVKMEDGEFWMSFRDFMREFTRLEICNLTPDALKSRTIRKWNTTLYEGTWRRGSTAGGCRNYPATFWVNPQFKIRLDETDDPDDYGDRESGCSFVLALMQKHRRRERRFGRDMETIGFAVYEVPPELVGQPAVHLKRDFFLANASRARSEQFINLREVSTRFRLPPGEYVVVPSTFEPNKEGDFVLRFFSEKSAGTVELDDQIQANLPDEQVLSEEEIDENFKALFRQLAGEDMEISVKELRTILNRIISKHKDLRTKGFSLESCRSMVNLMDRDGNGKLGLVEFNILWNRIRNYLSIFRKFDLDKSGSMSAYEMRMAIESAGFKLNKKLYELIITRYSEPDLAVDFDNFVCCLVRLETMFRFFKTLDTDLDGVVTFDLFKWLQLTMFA
T7 sequence (P04632 1-268 partner): T5 sequence (P04632 1-268 partner)
Description: as §2, §3

T1 sequence (P25774 115-331): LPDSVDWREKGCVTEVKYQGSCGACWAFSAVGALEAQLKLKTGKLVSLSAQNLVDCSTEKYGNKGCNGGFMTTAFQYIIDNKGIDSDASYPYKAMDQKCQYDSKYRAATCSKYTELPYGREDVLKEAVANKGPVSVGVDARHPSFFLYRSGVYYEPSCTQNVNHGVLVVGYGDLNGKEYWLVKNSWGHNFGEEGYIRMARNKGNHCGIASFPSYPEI

Structure (SMILES)	IC50 [1] [µM]	IC50 [2] [µM]	IC50 [3] [µM]	IC50 [4] [µM]	IC50 [5] [µM]	IC50 [6] [µM]	IC50 [7] [µM]
CC(C)[C@@H]1NC(=O)/C=C/[C@@H](NC(=O)OC(C)(C)C)COC(=O)[C@H](Cc2ccc(O)cc2)NC1=O [Compound 1, Tert-butyl ((3S,6S,11R,E)-3-(4-Hydroxybenzyl)-6-isopropyl-2,5,8-trioxo-1-oxa-4,7-Diazacyclododec-9-en-11-yl)carbamate]	< 3	< 3	< 3	< 3	> 10	> 10	> 10
CC(C)[C@@H]1NC(=O)/C=C/[C@@H](NC(=O)[C@@H](NC(=O)OC(C)(C)C)C(C)C)COC(=O)[C@H](Cc2ccc(O)cc2)NC1=O [Compound 2, Tert-butyl ((S)-1-(((3S,6S,11R,E)-3-(4-hydroxybenzyl)-6-isopropyl-2,5,8-trioxo-1-oxa-4,7-diazacyclododec-9-en-11-yl)amino)-3-methyl-1-oxobutan-2-yl)carbamate]	< 3	< 3	< 3	< 3	< 3	> 10	3 to 10
CC(C)[C@@H]1NC(=O)/C=C/[C@@H](NC(=O)[C@@H](NC(=O)[C@H](Cc2ccc(O)cc2)NC(=O)OC(C)(C)C)C(C)C)COC(=O)[C@H](Cc2ccc(O)cc2)NC1=O [Compound 3, Tert-butyl ((S)-1-(((S)-1-(((3S,6S,11R,E)-3-(4-Hydroxybenzyl)-6-isopropyl-2,5,8-trioxo-1-oxa-4,7-diazacyclododec-9-en-11-yl)amino)-3-methyl-1-oxobutan-2-yl)amino)-3-(4-hydroxyphenyl)-1-oxopropan-2-yl)carbamate]	< 3	< 3	< 3	< 3	< 3	> 10	< 3
CC(C)[C@@H]1NC(=O)/C=C/[C@@H](N)COC(=O)[C@H](Cc2ccc(O[Si](C)(C)C(C)(C)C)cc2)NC1=O [Compound 4, (3S,6S,11R,E)-11-amino-3-(4-((tert-butyldimethylsilyl)oxy)benzyl)-6-isopropyl-1-oxa-4,7-diazacyclododec-9-ene-2,5,8-trione]	3 to 10	3 to 10	> 10	< 3	> 10	> 10	> 10
CC(C)[C@@H]1NC(=O)/C=C/[C@@H](NC(=O)OC(C)(C)C)COC(=O)[C@H](Cc2ccccc2)NC1=O [Compound 5, Tert-butyl ((3S,6S,11R,E)-3-benzyl-6-isopropyl-2,5,8-trioxo-1-oxa-4,7-diazacyclododec-9-en-11-yl)carbamate]	< 3	< 3	3 to 10	< 3	> 10	> 10	> 10
CC(C)[C@@H]1NC(=O)/C=C/[C@@H](NC(=O)[C@@H](NC(=O)[C@H](Cc2ccccc2)NC(=O)OC(C)(C)C)C(C)C)COC(=O)[C@H](Cc2ccc(O)cc2)NC1=O [Compound 6]	< 3	< 3	< 3	< 3	< 3	> 10	< 3
CC(C)[C@@H]1NC(=O)/C=C/[C@@H](NC(=O)[C@@H](NC(=O)CNC(=O)OC(C)(C)C)C(C)C)COC(=O)[C@H](Cc2ccc(O)cc2)NC1=O [Compound 7, tert-butyl (2-(((s)-1-(((3S,6S,11R,E)-3-(4-hydroxybenzyl)-6-isopropyl-2,5,8-trioxo-1-oxa-4,7-diazacyclododec-9-en-11-yl)amino)-3-methyl-1-oxobutan-2-yl)amino)-2-oxoethyl)carbamate]	< 3	< 3	< 3	< 3	3 to 10	> 10	3 to 10
